pEC50: −log10 of the molar value. Converted amounts (≈) assume the structure as drawn. Blank lines part the entries; values can stand above or below the compound they belong to.
Tests used:
[1] = Lipophilicity, log D of the compound; assay type: physicochemical; conditions: octanol/water
[2] = Aqueous solubility of the compound; assay type: physicochemical
[3] = target: T1, Thrombopoietin receptor (Homo sapiens, UniProt P40238); experiment: Agonist activity at human thrombopoietin receptor transfected in mouse BAF3 cells assessed as stimulation of beta lactamase activity incubated in dark up to 1 hr; assay type: functional, cell-based
T1 sequence (P40238 whole entry): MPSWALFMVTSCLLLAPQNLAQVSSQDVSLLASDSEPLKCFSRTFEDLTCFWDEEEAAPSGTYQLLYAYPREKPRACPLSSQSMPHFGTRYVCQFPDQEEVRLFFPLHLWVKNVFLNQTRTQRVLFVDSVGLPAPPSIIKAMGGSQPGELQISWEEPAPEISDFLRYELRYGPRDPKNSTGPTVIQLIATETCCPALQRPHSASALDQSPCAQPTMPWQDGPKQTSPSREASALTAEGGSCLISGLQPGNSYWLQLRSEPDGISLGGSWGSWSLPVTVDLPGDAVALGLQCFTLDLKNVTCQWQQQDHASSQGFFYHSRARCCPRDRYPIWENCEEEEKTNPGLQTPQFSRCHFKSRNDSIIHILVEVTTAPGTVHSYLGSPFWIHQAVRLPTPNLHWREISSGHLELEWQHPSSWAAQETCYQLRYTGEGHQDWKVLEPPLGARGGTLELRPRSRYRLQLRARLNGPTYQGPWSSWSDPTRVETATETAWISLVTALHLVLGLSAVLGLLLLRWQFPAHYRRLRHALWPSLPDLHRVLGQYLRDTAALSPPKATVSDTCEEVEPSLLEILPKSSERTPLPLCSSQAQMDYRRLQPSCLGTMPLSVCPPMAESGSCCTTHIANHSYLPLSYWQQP

[4] = tested on: Rattus norvegicus; experiment: Volume of distribution at steady state in rat at 5 mg/kg, po; assay type: ADME, organism-based; set-up: dose 5 mg/kg, route oral; conditions: in vivo
[5] = Half life in rat at 5 mg/kg, po; assay type: ADME, organism-based; set-up: dose 5 mg/kg, route oral; conditions: in vivo
[6] = Bioavailability in rat at 5 mg/kg, po; assay type: ADME, organism-based; conditions: in vivo
[7] = Plasma clearance in rat at 5 mg/kg, po; assay type: ADME, organism-based; set-up: dose 5 mg/kg, route oral
[8] = Plasma clearance in dog at 5 mg/kg, po; assay type: ADME, organism-based, Canis lupus familiaris; set-up: dose 5 mg/kg, route oral
[9] = tested on: Canis familiaris; experiment: Volume of distribution at steady state in dog at 5 mg/kg, po; assay type: ADME, organism-based, Canis lupus familiaris; set-up: dose 5 mg/kg, route oral; conditions: in vivo
[10] = Half life in dog at 5 mg/kg, po; assay type: ADME, organism-based, Canis lupus familiaris; set-up: dose 5 mg/kg, route oral; conditions: in vivo
[11] = Bioavailability in dog at 5 mg/kg, po; assay type: ADME, organism-based, Canis lupus familiaris; conditions: in vivo
[12] = Permeability across human Caco-2 cell membrane; assay type: ADME, cell-based; conditions: read-out: permeability
[13] = Oral bioavailability in rat; assay type: ADME, organism-based; conditions: in vivo
[14] = Clearance in iv dosed rat; assay type: ADME, organism-based; conditions: in vivo
[15] = Protein binding in rat plasma; assay type: ADME, cell-free; conditions: read-out: PPB
[16] = Protein binding in dog plasma; assay type: ADME, cell-free, Canis lupus familiaris; conditions: read-out: PPB
[17] = Protein binding in mouse plasma; assay type: ADME, cell-free; conditions: read-out: PPB
[18] = Protein binding in human plasma; assay type: ADME, cell-free; conditions: read-out: PPB
[19] = aqueous medium, read-out: solubility

Compound: O=C(Nc1nc(-c2cccc(OC(F)(F)F)c2F)cs1)c1ccc(Nc2cc(N3CC(O)C3)ncn2)cc1
logD [1]: 4.61
solubility [2, 19]: < 1 µg/mL

Compound: O=C(Nc1nc(-c2cccc(C(F)(F)F)c2F)cs1)c1cnc(N2CCCCC2)c(Cl)c1
logD [1]: 7.1
solubility [2, 19]: < 10 µg/mL
pEC50 [3]: < 5.00

Compound: NCCO.O=C(Nc1nc(-c2cccc(C(F)(F)F)c2F)cs1)c1cnc(N2CCC(C(=O)O)CC2)c(Cl)c1
solubility [2, 19]: 15600 µg/mL

Compound: COc1cc(C(=O)Nc2nc(-c3cccc(C(F)(F)F)c3F)cs2)cnc1N1CCC(C(=O)O)CC1
solubility [2, 19]: < 10 µg/mL
pEC50 [3]: < 6.00

Compound: CC1=NN(c2ccc(C)c(C)c2)C(=O)/C1=N\Nc1cccc(-c2cccc(C(=O)[O-])c2)c1O.[Na+]
Vdss [4]: 0.831 L/kg
half-life [5]: 1.34 h
bioavailability [6]: 66.8%
CL/F [7]: 6.87 mL/min/kg

Compound: CC1=NN(c2ccc(C)c(C)c2)C(=O)/C1=N\Nc1cccc(-c2cccc(C(=O)O)c2)c1O.NCCO
Vdss [4]: 0.579 L/kg
half-life [5]: 1.29 h
bioavailability [6]: 53.4%
CL/F [8]: 0.94 mL/min/kg
Vdss [9]: 0.228 L/kg
half-life [10]: 2.31 h
bioavailability [11]: 50%
solubility ([2]; buffer): < 1 µg/mL
CL/F [7]: 6.34 mL/min/kg

Compound: O=C(Nc1nc(-c2cccc(C(F)(F)F)c2F)cs1)c1cnc(N2CCC(C(=O)O)CC2)c(F)c1
solubility [2, 19]: < 10 µg/mL
pEC50 [3]: < 6.00

Compound: O=C(Nc1nc(-c2cccc(C(F)(F)F)c2F)cs1)c1ccc(N2CCC(C(=O)O)C2)nc1 (centres undefined)
Papp [12]: 4.5 ×10⁻⁶ cm/s
logD [1]: 1.21
solubility [2, 19]: 167 µg/mL (≈ 348 µM)
bioavailability [13]: < 3%
pEC50 [3]: 5.48
clearance [14]: 2.5 mL/min/kg

Compound: O=C(Nc1nc(-c2cccc(C(F)(F)F)c2F)cs1)c1cnc(N2CCC(c3nn[nH]n3)CC2)c(Cl)c1
logD [1]: 3.24
solubility [2, 19]: < 10 µg/mL
pEC50 [3]: 6.31

Compound: NCCO.O=C(Nc1nc(-c2cccc(C(F)(F)F)c2F)cs1)c1ccc(N2CCC(C(=O)O)C2)nc1 (centres undefined)
solubility [2, 19]: > 2000 µg/mL

Compound: O=C(Nc1nc(-c2cccc(C(F)(F)F)c2F)cs1)c1ccc(N2CCC(C(=O)O)CC2)nc1
logD [1]: 1.83
solubility [2, 19]: < 10 µg/mL
pEC50 [3]: 6.37

Compound: CC1=NN(c2ccc(C)c(C)c2)C(=O)/C1=N\Nc1cccc(-c2cccc(C(=O)O)c2)c1O [ELTROMBOPAG]
solubility ([2]; buffer): 14000 µg/mL (≈ 31600 µM)

More lines, in order of rising pEC50 [3], values ahead:

logD [1]: 2.94
solubility [2, 19]: < 10 µg/mL
pEC50 [3]: 6.53
Compound: O=C(Nc1nc(-c2cccc(C(F)(F)F)c2F)cs1)c1cnc(N2CCCC(C(=O)O)C2)c(Cl)c1 (centres undefined)

solubility [2, 19]: < 10 µg/mL
pEC50 [3]: 6.60
Compound: Cc1cc(C(=O)Nc2nc(-c3cccc(C(F)(F)F)c3F)cs2)cnc1N1CCC(C(=O)O)CC1

solubility [2, 19]: < 10 µg/mL
pEC50 [3]: 6.86
Compound: N#Cc1cc(C(=O)Nc2nc(-c3cccc(C(F)(F)F)c3F)cs2)cnc1N1CCC(C(=O)O)CC1

solubility [2, 19]: < 10 µg/mL
pEC50 [3]: 6.87
Compound: O=C(Nc1nc(-c2cccc(C(F)(F)F)c2F)cs1)c1cnc(N2CCC(C(=O)O)CC2)c(C(F)(F)F)c1

logD [1]: 1.88
solubility [2, 19]: < 10 µg/mL
pEC50 [3]: 6.89
Compound: O=C(Nc1nc(-c2cccc(C(F)(F)F)c2F)cs1)c1cnc(N2CCNC(C(=O)O)C2)c(Cl)c1 (centres undefined)

logD [1]: 1.57
solubility [2, 19]: < 10 µg/mL
pEC50 [3]: 7.24
Compound: C[C@@H](Nc1ncc(C(=O)Nc2nc(-c3cccc(C(F)(F)F)c3F)cs2)cc1Cl)C(=O)O

solubility [2, 19]: < 10 µg/mL
pEC50 [3]: 7.25
Compound: O=C(Nc1nc(-c2cccc(C(F)(F)F)c2F)cs1)c1ccc(N2CCC(C(=O)O)CC2)c(Cl)c1

solubility [2, 19]: < 10 µg/mL
pEC50 [3]: 7.30
Compound: O=C(Nc1nc(-c2cccc(C(F)(F)F)c2F)cs1)c1cnc(N2CCC(C(=O)O)CC2)c(Br)c1

logD [1]: 2.79
solubility [2, 19]: < 10 µg/mL
pEC50 [3]: 7.37
Compound: C[C@H]1CN(c2ncc(C(=O)Nc3nc(-c4cccc(C(F)(F)F)c4F)cs3)cc2Cl)CC1C(=O)O (some centres undefined)

logD [1]: 4.86
solubility [2, 19]: < 10 µg/mL
pEC50 [3]: 7.47
Compound: NS(=O)(=O)C1CCN(c2ncc(C(=O)Nc3nc(-c4cccc(C(F)(F)F)c4F)cs3)cc2Cl)CC1

fraction unbound [15]: < 0.005
fraction unbound [16]: < 0.005
fraction unbound [17]: < 0.005
fraction unbound [18]: < 0.005
logD [1]: 2.94
solubility [2, 19]: < 10 µg/mL
pEC50 [3]: 7.48
Compound: O=C(Nc1nc(-c2cccc(C(F)(F)F)c2F)cs1)c1cnc(N2CCC(C(=O)O)CC2)c(Cl)c1

logD [1]: 4.92
solubility [2, 19]: < 10 µg/mL
pEC50 [3]: 7.55
Compound: NC(=O)C1CCN(c2ncc(C(=O)Nc3nc(-c4cccc(C(F)(F)F)c4F)cs3)cc2Cl)CC1

solubility [2, 19]: < 10 µg/mL
pEC50 [3]: 8.00
Compound: O=C(Nc1nc(-c2cccc(C(F)(F)F)c2F)cs1)c1cc(Cl)c(N2CCC(C(=O)O)CC2)c(Cl)c1

— ChEMBL document CHEMBL1152884, “The identification of orally bioavailable thrombopoietin agonists” (Bioorg Med Chem Lett, 2009)
